Measurements: patent US11219603B2, “Stable dosage form of etidronate-cytarabine conjugate, and use thereof” (MAXWELL BIOTECH GROUP LTD., priority 2015, dated 2022)

Experiments:
Format in all cases: physicochemical
[1] = Compatibility with media for intravenous administration (Ara-CMP increase); conditions: 25 mg/mL MBC-11, MgCl2:MBC-11 2:1, dextran 5%, diluted to 1 mg/mL in D5W; within one day
[2] = Physical and hydrolytic stability of reconstituted lyophilizates in intravenous media; conditions: reconstituted lyophilizate, low dose in D5W, 25° C., 6 hours
Procedure: The lyophilized dosage form was evaluated for compatibility with three different media for intravenous administration within 24 hours: sterile water for injection (SWFI), D5W and 0.9% sodium chloride solution. […] The lyophilized dosage form was first dissolved in 5 mL SWFI to the MBC-11 trisodium salt concentration of 20 mg/mL, and then it was placed in glass vials and diluted with each medium for intravenous administration until the infusion doses under study were obtained. The solutions thus obtained were kept at 2-8° C. and 25° C. for 24 hours, and the evaluation of the samples in appearance, content and purity at the points t=0, 2, 4, 6 and 24 hours was performed.
At each control point, solutions for intravenous administration with a high dosage were evaluated in appearance, after which they were diluted to a nominal analytical concentration of 1 mg/mL with a solvent used in the analytical method for evaluating the substance purity. The samples thus obtained were used to determine the purity and content of the active pharmaceutical ingredient.

[3] = Effect of MgCl2 on hydrolysis of MBC-11 in solution (formation of Ara-CMP at 25° C.); conditions: for Content of Ara-CMP (%): 25° C.
Procedure: Studies were performed, where magnesium chloride was investigated as a stabilizer against hydrolytic decomposition. MgCl2 was added to solutions of MBC-11 conjugate in water, tartrate buffer (50 mmol/L, pH 5) and succinate buffer (50 mmol/L, pH 5). The following molar ratios of MgCl2 to MBC-11 were used: (1:2), (1:1), (2:1) and higher (˜12:1). […]

[4] = Hydrolysis rate constant with MgCl2 or CaCl2 as stabilizer; conditions: for hydrolysis rate constant (K): in water
Description: The use of calcium chloride as a stabilizer against hydrolytic decomposition in both buffer solutions and water was also investigated; the hydrolysis rate constant was compared with the constant for MgCl2. […] If molar ratios were less than 2:1, the hydrolysis rate was lower for solutions containing MgCl2.

SMILES: CC(O)(P(=O)(O)O)P(=O)(O)OP(=O)(O)OC[C@H]1O[C@@H](n2ccc(N)nc2=O)[C@@H](O)[C@@H]1O (some centres unmarked) [MBC-11]
- increase in Ara-CMP content [1]: 1%
- increase in the Ara-CMP content [2]: 0.5%
- Content of Ara-CMP (%) ([3]; Succinate buffer, MgCl2 0.87 mmol/L, MgCl2:MBC-11 1:2, t = 0 h): 2.6%
- Content of Ara-CMP (%) ([3]; Succinate buffer, MgCl2 0.87 mmol/L, MgCl2:MBC-11 1:2, t = 4 h): 3.5%
- Content of Ara-CMP (%) ([3]; Succinate buffer, MgCl2 0.87 mmol/L, MgCl2:MBC-11 1:2, t = 8 h): 4.4%
- Content of Ara-CMP (%) ([3]; Succinate buffer, MgCl2 0.87 mmol/L, MgCl2:MBC-11 1:2, t = 24 h): 7.9%
- Content of Ara-CMP (%) ([3]; Succinate buffer, MgCl2 1.73 mmol/L, MgCl2:MBC-11 1:1, t = 0 h): 2.5%
- Content of Ara-CMP (%) ([3]; Succinate buffer, MgCl2 1.73 mmol/L, MgCl2:MBC-11 1:1, t = 4 h): 3.1%
- Content of Ara-CMP (%) ([3]; Succinate buffer, MgCl2 1.73 mmol/L, MgCl2:MBC-11 1:1, t = 8 h): 3.7%
- Content of Ara-CMP (%) ([3]; Succinate buffer, MgCl2 1.73 mmol/L, MgCl2:MBC-11 1:1, t = 24 h): 5.6%
- Content of Ara-CMP (%) ([3]; Succinate buffer, MgCl2 3.5 mmol/L, MgCl2:MBC-11 2:1, t = 0 h): 2.6%
- Content of Ara-CMP (%) ([3]; Succinate buffer, MgCl2 3.5 mmol/L, MgCl2:MBC-11 2:1, t = 4 h): 3.1%
- Content of Ara-CMP (%) ([3]; Succinate buffer, MgCl2 3.5 mmol/L, MgCl2:MBC-11 2:1, t = 8 h): 3.7%
- Content of Ara-CMP (%) ([3]; Succinate buffer, MgCl2 3.5 mmol/L, MgCl2:MBC-11 2:1, t = 24 h): 5.8%
- Content of Ara-CMP (%) ([3]; Succinate buffer, MgCl2 20 mmol/L, MgCl2:MBC-11 ~12:1, t = 0 h): 2.5%
- Content of Ara-CMP (%) ([3]; Succinate buffer, MgCl2 20 mmol/L, MgCl2:MBC-11 ~12:1, t = 4 h): 2.7%
- Content of Ara-CMP (%) ([3]; Succinate buffer, MgCl2 20 mmol/L, MgCl2:MBC-11 ~12:1, t = 8 h): 2.9%
- Content of Ara-CMP (%) ([3]; Succinate buffer, MgCl2 20 mmol/L, MgCl2:MBC-11 ~12:1, t = 24 h): 3.6%
- Content of Ara-CMP (%) ([3]; Succinate buffer, no MgCl2, t = 0 h): 3.5%
- Content of Ara-CMP (%) ([3]; Succinate buffer, no MgCl2, t = 4 h): 5.0%
- Content of Ara-CMP (%) ([3]; Succinate buffer, no MgCl2, t = 8 h): 6.4%
- Content of Ara-CMP (%) ([3]; Succinate buffer, no MgCl2, t = 24 h): 11.5%
- Content of Ara-CMP (%) ([3]; Tartrate buffer, MgCl2 0.87 mmol/L, MgCl2:MBC-11 1:2, t = 0 h): 2.5%
- Content of Ara-CMP (%) ([3]; Tartrate buffer, MgCl2 0.87 mmol/L, MgCl2:MBC-11 1:2, t = 4 h): 3.5%
- Content of Ara-CMP (%) ([3]; Tartrate buffer, MgCl2 0.87 mmol/L, MgCl2:MBC-11 1:2, t = 8 h): 4.5%
- Content of Ara-CMP (%) ([3]; Tartrate buffer, MgCl2 0.87 mmol/L, MgCl2:MBC-11 1:2, t = 24 h): 8.4%
- Content of Ara-CMP (%) ([3]; Tartrate buffer, MgCl2 1.73 mmol/L, MgCl2:MBC-11 1:1, t = 0 h): 2.6%
- Content of Ara-CMP (%) ([3]; Tartrate buffer, MgCl2 1.73 mmol/L, MgCl2:MBC-11 1:1, t = 4 h): 3.3%
- Content of Ara-CMP (%) ([3]; Tartrate buffer, MgCl2 1.73 mmol/L, MgCl2:MBC-11 1:1, t = 8 h): 4.1%
- Content of Ara-CMP (%) ([3]; Tartrate buffer, MgCl2 1.73 mmol/L, MgCl2:MBC-11 1:1, t = 24 h): 7.3%
- Content of Ara-CMP (%) ([3]; Tartrate buffer, MgCl2 3.5 mmol/L, MgCl2:MBC-11 2:1, t = 0 h): 2.5%
- Content of Ara-CMP (%) ([3]; Tartrate buffer, MgCl2 3.5 mmol/L, MgCl2:MBC-11 2:1, t = 4 h): 3.0%
- Content of Ara-CMP (%) ([3]; Tartrate buffer, MgCl2 3.5 mmol/L, MgCl2:MBC-11 2:1, t = 8 h): 3.5%
- Content of Ara-CMP (%) ([3]; Tartrate buffer, MgCl2 3.5 mmol/L, MgCl2:MBC-11 2:1, t = 24 h): 5.5%
- Content of Ara-CMP (%) ([3]; Tartrate buffer, MgCl2 20 mmol/L, MgCl2:MBC-11 ~12:1, t = 0 h): 2.6%
- Content of Ara-CMP (%) ([3]; Tartrate buffer, MgCl2 20 mmol/L, MgCl2:MBC-11 ~12:1, t = 4 h): 2.7%
- Content of Ara-CMP (%) ([3]; Tartrate buffer, MgCl2 20 mmol/L, MgCl2:MBC-11 ~12:1, t = 8 h): 3.0%
- Content of Ara-CMP (%) ([3]; Tartrate buffer, MgCl2 20 mmol/L, MgCl2:MBC-11 ~12:1, t = 24 h): 3.8%
- Content of Ara-CMP (%) ([3]; Tartrate buffer, no MgCl2, t = 0 h): 3.8%
- Content of Ara-CMP (%) ([3]; Tartrate buffer, no MgCl2, t = 4 h): 5.3%
- Content of Ara-CMP (%) ([3]; Tartrate buffer, no MgCl2, t = 8 h): 6.6%
- Content of Ara-CMP (%) ([3]; Tartrate buffer, no MgCl2, t = 24 h): 11.7%
- Content of Ara-CMP (%) ([3]; Water, MgCl2 0.87 mmol/L, MgCl2:MBC-11 1:2, t = 0 h): 2.6%
- Content of Ara-CMP (%) ([3]; Water, MgCl2 0.87 mmol/L, MgCl2:MBC-11 1:2, t = 4 h): 3.3%
- Content of Ara-CMP (%) ([3]; Water, MgCl2 0.87 mmol/L, MgCl2:MBC-11 1:2, t = 8 h): 4.0%
- Content of Ara-CMP (%) ([3]; Water, MgCl2 0.87 mmol/L, MgCl2:MBC-11 1:2, t = 24 h): 6.8%
- Content of Ara-CMP (%) ([3]; Water, MgCl2 1.73 mmol/L, MgCl2:MBC-11 1:1, t = 0 h): 2.5%
- Content of Ara-CMP (%) ([3]; Water, MgCl2 1.73 mmol/L, MgCl2:MBC-11 1:1, t = 4 h): 2.8%
- Content of Ara-CMP (%) ([3]; Water, MgCl2 1.73 mmol/L, MgCl2:MBC-11 1:1, t = 8 h): 3.2%
- Content of Ara-CMP (%) ([3]; Water, MgCl2 1.73 mmol/L, MgCl2:MBC-11 1:1, t = 24 h): 4.6%
- Content of Ara-CMP (%) ([3]; Water, MgCl2 3.5 mmol/L, MgCl2:MBC-11 2:1, t = 0 h): 2.7%
- Content of Ara-CMP (%) ([3]; Water, MgCl2 3.5 mmol/L, MgCl2:MBC-11 2:1, t = 4 h): 2.7%
- Content of Ara-CMP (%) ([3]; Water, MgCl2 3.5 mmol/L, MgCl2:MBC-11 2:1, t = 8 h): 2.9%
- Content of Ara-CMP (%) ([3]; Water, MgCl2 3.5 mmol/L, MgCl2:MBC-11 2:1, t = 24 h): 3.7%
- Content of Ara-CMP (%) ([3]; Water, MgCl2 20 mmol/L, MgCl2:MBC-11 ~12:1, t = 0 h): 2.6%
- Content of Ara-CMP (%) ([3]; Water, MgCl2 20 mmol/L, MgCl2:MBC-11 ~12:1, t = 4 h): 2.7%
- Content of Ara-CMP (%) ([3]; Water, MgCl2 20 mmol/L, MgCl2:MBC-11 ~12:1, t = 8 h): 2.9%
- Content of Ara-CMP (%) ([3]; Water, MgCl2 20 mmol/L, MgCl2:MBC-11 ~12:1, t = 24 h): 3.5%
- increase in Ara-CMP content ([3]; previous observations (before addition of MgCl2), 8 hours at 25° C.): ~2%
- slowdown in the hydrolysis reaction ([4]; divalent metal salts added to aqueous solution in molar ratio 2:1): 90%
- hydrolysis rate constant (K) ([4]; molar ratio CaCl2 to MBC-11 2:1): 0.0005
- hydrolysis rate constant (K) ([4]; molar ratio MgCl2 to MBC-11 2:1): 0.0005
